# Measured values published in patent publication US20160281050A1, “METHODS FOR TREATING A CULTURE OF HAEMATOCOCCUS PLUVIALIS FOR CONTAMINATION USING SALT AND HYDROGEN PEROXIDE” (HELIAE DEVELOPMENT LLC, priority 2015, published 2016).
# Read-outs that look alike come from different tables or passages of the source.
# How the values were obtained:
# [1] = test system: Haematococcus pluvialis (Strain 2); test: % cell lysis and culture dry weight in flasks, salt treatment (Example 12); format: cell-based
# Description: This test was done side by side in flasks (0.1 L) and in reactors located in a greenhouse operating in conditions: reactor volume of 230 L; Daily PAR of 20 mol m^−2 d^−1; pH (not measured); and paddlewheel speed of 21 RPM. […] The flask cultures were mixed by shaking at 140 rpm and received 300-400 μmol/m^2 s of photosynthetically active radiation (PAR) in 12 hour light cycles and constant supply of 2.5% CO2. The motility of the culture was monitored by visual observation under a microscope. […] Nine 230 L reactors were also seeded with culture from bioreactor #2410 on the same day as the flasks and brought to 2 ppt concentration of salt. Once motility of the cells was reduced to <10% (day 3 of culture for flasks and day 2 for 230 L reactors) the level of salt was elevated to a point between 4-18 ppt and compared to the culture in two reactors remaining at 2 ppt salt. Flasks and 230 L reactors were monitored for percentage of cell lysis via visual observation under a microscope, culture dry weight (biomass accumulation in g/L), and percentage of chytrid infection via visual observation under a microscope. Carotenoid production, a proxy for determining astaxanthin, was quantified every other day of culture in the 230 L reactors using the UV method.
# chytrids [2] = test system: chytrids
# Description: Culture samples of Haematococcus pluvialis (Strain 2) were collected on the second day of the culture from open raceway bioreactor #2430 operating in conditions: reactor volume of 170,000 L; Daily PAR not measured; pH of 7.3; and paddlewheel speed of 70. The culture samples were distributed into flasks for culturing, consisting of duplicate untreated controls and duplicate treatments. […] Samples were taken from the flask cultures daily to quantify % lysis and % chytrid infection and cell dry weight was quantified every other day for a duration of 11 days.
# chytrids [3] = test system: chytrids; remark: listed apart in the source
# Description: Culture samples of Haematococcus pluvialis (Strain 2) were collected on the second day of culture from open raceway bioreactor #2410 operating in conditions: reactor volume of 150,000 L; Daily PAR of 9.77 mol m^−2 d^−1; pH of 7.3; and paddlewheel speed of 70%. Culture samples were distributed into flasks for culturing, consisting of duplicate untreated controls and duplicate treatments. […] Samples were taken from the flask cultures daily to quantify % lysis and % chytrid infection and cell dry weight was quantified every other day for a duration of 11 days.
# [4] = test system: Haematococcus pluvialis (Strain 2); test: % lysis and culture dry weight in flasks (Example 9); conditions: for percent lysis: by day 5;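 on all read-outs here: flask cultures run in duplicate for each treatment, alongside duplicate untreated control flasks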
# Description: Culture samples of Haematococcus pluvialis (Strain 2) were collected on day 5 of the culture from open raceway bioreactor #2420 operating in conditions: reactor volume of 170,000 L; Daily PAR not measured; pH of 7.3; and paddlewheel speed of 70%). Culture samples were distributed into flasks for culturing, consisting of duplicate untreated controls and duplicate treatments. […] Samples were taken from the flask cultures every few days in order to quantify % lysis, % chytrid infection, and cell dry weight for a duration of about 11 days.
# [5] = 0.0105 mL/L 1 time per day, day 3
# [6] = 0.0105 mL/L 1 time per day, day 4
# [7] = 0.0105 mL/L 1 time per day, day 5
# [8] = 0.0105 mL/L 1 time per day, day 6
# [9] = 0.0105 mL/L 1 time per day, day 7
# [10] = 0.0140 mL/L 1 time per day, day 0
# [11] = 0.0140 mL/L 1 time per day, day 3
# [12] = 0.0140 mL/L 1 time per day, day 4
compound,measurement,setting,value
"[Cl-].[Na+] [NaCl, sodium chloride]",% Cell Lysis in Flasks,"[1]; 2 ppt, 9 d",0 ± 0%
same,% Cell Lysis in Flasks,"[1]; 2 ppt, 11 d",0 ± 0%
same,% Cell Lysis in Flasks,"[1]; 4 ppt, 9 d",0 ± 0%
same,% Cell Lysis in Flasks,"[1]; 4 ppt, 11 d",0 ± 0%
same,% Cell Lysis in Flasks,"[1]; 5 ppt, 9 d",0 ± 0%
same,% Cell Lysis in Flasks,"[1]; 5 ppt, 11 d",1 ± 1%
same,% Cell Lysis in Flasks,"[1]; 6 ppt, 9 d",4 ± 3%
same,% Cell Lysis in Flasks,"[1]; 6 ppt, 11 d",5 ± 4%
same,% Cell Lysis in Flasks,"[1]; 7 ppt, 9 d",0 ± 0%
same,% Cell Lysis in Flasks,"[1]; 7 ppt, 11 d",7 ± 3%
same,% Cell Lysis in Flasks,"[1]; 8 ppt, 9 d",3 ± 2%
same,% Cell Lysis in Flasks,"[1]; 8 ppt, 11 d",2 ± 0%
same,% Cell Lysis in Flasks,"[1]; 9 ppt, 9 d",0 ± 0%
same,% Cell Lysis in Flasks,"[1]; 9 ppt, 11 d",2 ± 0%
same,% Cell Lysis in Flasks,"[1]; 10 ppt, 9 d",1 ± 1%
same,% Cell Lysis in Flasks,"[1]; 10 ppt, 11 d",3 ± 1%
same,% Cell Lysis in Flasks,"[1]; 11 ppt, 9 d",0 ± 0%
same,% Cell Lysis in Flasks,"[1]; 11 ppt, 11 d",1 ± 1%
same,cell lysis,"[1]; flasks, all treatments",below 10%
hydrogen peroxide [H2O2],% Chytrid infection,"chytrids [2]; 0.0105 mL/L 1 time per day for 3 d then every other day, day 0",0.0 ± 0.0%
same,% Chytrid infection,"chytrids [2]; 0.0105 mL/L 1 time per day for 3 d then every other day, day 3",0.0 ± 0.0%
same,% Chytrid infection,"chytrids [2]; 0.0105 mL/L 1 time per day for 3 d then every other day, day 4",0.8 ± 1.2%
same,% Chytrid infection,"chytrids [2]; 0.0105 mL/L 1 time per day for 3 d then every other day, day 5",5.0 ± 2.4%
same,% Chytrid infection,"chytrids [2]; 0.0105 mL/L 1 time per day for 3 d then every other day, day 6",2.5 ± 1.2%
same,% Chytrid infection,"chytrids [2]; 0.0105 mL/L 1 time per day for 3 d then every other day, day 7",0.0 ± 0.0%
same,% Chytrid infection,"chytrids [2]; 0.0105 mL/L 1 time per day for 3 d then every other day, day 8",0.0 ± 0.0%
same,% Chytrid infection,"chytrids [2]; 0.0105 mL/L 1 time per day for 3 d then every other day, day 9",2.5 ± 3.5%
same,% Chytrid infection,"chytrids [2]; 0.0105 mL/L 1 time per day for 3 d then every other day, day 10",1.7 ± 2.4%
same,% Chytrid infection,"chytrids [2]; 0.0105 mL/L 1 time per day, day 0",0.0 ± 0.0%
same,% Chytrid infection,chytrids [2]; [5],0.0 ± 0.0%
same,% Chytrid infection,chytrids [2]; [6],0.8 ± 1.2%
same,% Chytrid infection,chytrids [2]; [7],0.8 ± 1.2%
same,% Chytrid infection,chytrids [2]; [8],1.7 ± 2.4%
same,% Chytrid infection,chytrids [2]; [9],3.3 ± 0.0%
same,% Chytrid infection,"chytrids [2]; 0.0105 mL/L 1 time per day, day 8",0.0 ± 0.0%
same,% Chytrid infection,"chytrids [2]; 0.0105 mL/L 1 time per day, day 9",0.8 ± 1.2%
same,% Chytrid infection,"chytrids [2]; 0.0105 mL/L 1 time per day, day 10",0.0 ± 0.0%
same,% Chytrid infection,"chytrids [2]; 0.0140 mL/L 1 time per day for 3 d then every other day, day 0",0.0 ± 0.0%
same,% Chytrid infection,"chytrids [2]; 0.0140 mL/L 1 time per day for 3 d then every other day, day 3",0.0 ± 0.0%
same,% Chytrid infection,"chytrids [2]; 0.0140 mL/L 1 time per day for 3 d then every other day, day 4",0.0 ± 0.0%
same,% Chytrid infection,"chytrids [2]; 0.0140 mL/L 1 time per day for 3 d then every other day, day 5",0.0 ± 0.0%
same,% Chytrid infection,"chytrids [2]; 0.0140 mL/L 1 time per day for 3 d then every other day, day 6",1.7 ± 2.4%
same,% Chytrid infection,"chytrids [2]; 0.0140 mL/L 1 time per day for 3 d then every other day, day 7",0.0 ± 0.0%
same,% Chytrid infection,"chytrids [2]; 0.0140 mL/L 1 time per day for 3 d then every other day, day 8",0.8 ± 1.2%
same,% Chytrid infection,"chytrids [2]; 0.0140 mL/L 1 time per day for 3 d then every other day, day 9",0.0 ± 0.0%
same,% Chytrid infection,"chytrids [2]; 0.0140 mL/L 1 time per day for 3 d then every other day, day 10",0.0 ± 0.0%
same,% Chytrid infection,chytrids [2]; [10],0.0 ± 0.0%
same,% Chytrid infection,chytrids [2]; [11],0.0 ± 0.0%
same,% Chytrid infection,chytrids [2]; [12],0.0 ± 0.0%
same,% Chytrid infection,"chytrids [2]; 0.0140 mL/L 1 time per day, day 6",0.0 ± 0.0%
same,% Chytrid infection,"chytrids [2]; 0.0140 mL/L 1 time per day, day 7",1.7 ± 2.4%
same,% Chytrid infection,"chytrids [2]; 0.0140 mL/L 1 time per day, day 8",0.8 ± 1.2%
same,% Chytrid infection,"chytrids [2]; 0.0140 mL/L 1 time per day, day 9",0.8 ± 1.2%
same,% Chytrid infection,"chytrids [2]; 0.0140 mL/L 1 time per day, day 10",0.0 ± 0.0%
same,% Chytrid infection,"chytrids [2]; 0.0175 mL/L 1 time per day for 2 d then every other, day 0",0.0 ± 0.0%
same,% Chytrid infection,"chytrids [2]; 0.0175 mL/L 1 time per day for 2 d then every other, day 3",0.0 ± 0.0%
same,% Chytrid infection,"chytrids [2]; 0.0175 mL/L 1 time per day for 2 d then every other, day 4",0.0 ± 0.0%
same,% Chytrid infection,"chytrids [2]; 0.0175 mL/L 1 time per day for 2 d then every other, day 5",0.0 ± 0.0%
same,% Chytrid infection,"chytrids [2]; 0.0175 mL/L 1 time per day for 2 d then every other, day 6",0.8 ± 1.2%
same,chytrid infection,chytrids [2]; all treated flasks,under 10%
same,% Chytrid infection,"chytrids [3]; 0.0105 mL/L 1 time daily for 3 days, day 1",0.0 ± 0.0%
same,% Chytrid infection,"chytrids [3]; 0.0105 mL/L 1 time daily for 3 days, day 2",0.0 ± 0.0%
same,% Chytrid infection,"chytrids [3]; 0.0105 mL/L 1 time daily for 3 days, day 3",0.0 ± 0.0%
same,% Chytrid infection,"chytrids [3]; 0.0105 mL/L 1 time daily for 3 days, day 4",0.0 ± 0.0%
same,% Chytrid infection,"chytrids [3]; 0.0105 mL/L 1 time daily for 3 days, day 5",0.8 ± 1.2%
same,% Chytrid infection,"chytrids [3]; 0.0105 mL/L 1 time daily for 3 days, day 6",0.0 ± 0.0%
same,% Chytrid infection,"chytrids [3]; 0.0105 mL/L 1 time daily for 3 days, day 7",1.7 ± 2.4%
same,% Chytrid infection,"chytrids [3]; 0.0105 mL/L 1 time every other day, day 1",0.0 ± 0.0%
same,% Chytrid infection,"chytrids [3]; 0.0105 mL/L 1 time every other day, day 2",0.0 ± 0.0%
same,% Chytrid infection,"chytrids [3]; 0.0105 mL/L 1 time every other day, day 3",2.5 ± 1.2%
same,% Chytrid infection,"chytrids [3]; 0.0105 mL/L 1 time every other day, day 4",0.0 ± 0.0%
same,% Chytrid infection,"chytrids [3]; 0.0105 mL/L 1 time every other day, day 5",0.8 ± 1.2%
same,% Chytrid infection,"chytrids [3]; 0.0105 mL/L 1 time every other day, day 6",3.3 ± 0.0%
same,% Chytrid infection,"chytrids [3]; 0.0105 mL/L 1 time every other day, day 7",0.8 ± 1.2%
same,% Chytrid infection,"chytrids [3]; 0.0105 mL/L 1 time per day, day 1",0.0 ± 0.0%
same,% Chytrid infection,"chytrids [3]; 0.0105 mL/L 1 time per day, day 2",0.0 ± 0.0%
same,% Chytrid infection,chytrids [3]; [5],0.0 ± 0.0%
same,% Chytrid infection,chytrids [3]; [6],0.0 ± 0.0%
same,% Chytrid infection,chytrids [3]; [7],2.5 ± 3.5%
same,% Chytrid infection,chytrids [3]; [8],0.0 ± 0.0%
same,% Chytrid infection,chytrids [3]; [9],0.0 ± 0.0%
same,chytrid infection,"chytrids [3]; all treated flasks, 0.0105 mL/L",below 5%
same,% Lysis,"[4]; 0.0105 mL/L 3 times per day (discontinued day 5), day 6",3.3 ± 2.4%
same,% Lysis,"[4]; 0.0105 mL/L 3 times per day (discontinued day 5), day 9",6.7 ± 2.4%
same,% Lysis,"[4]; 0.0105 mL/L 3 times per day (discontinued day 5), day 11",4.2 ± 3.5%
same,% Lysis,"[4]; 0.0105 mL/L 3 times per day, day 0",4.2 ± 1.2%
same,% Lysis,"[4]; 0.0105 mL/L 3 times per day, day 3",0.8 ± 1.2%
same,% Lysis,"[4]; 0.0105 mL/L 3 times per day, day 4",3.3 ± 2.4%
same,% Lysis,"[4]; 0.0105 mL/L 3 times per day, day 5",10.8 ± 1.2%
same,% Lysis,"[4]; 0.0140 mL/L 1 time per day (discontinued day 5), day 6",7.5 ± 1.2%
same,% Lysis,"[4]; 0.0140 mL/L 1 time per day (discontinued day 5), day 9",10.8 ± 1.2%
same,% Lysis,"[4]; 0.0140 mL/L 1 time per day (discontinued day 5), day 11",7.5 ± 1.2%
same,% Lysis,[4]; [10],4.2 ± 1.2%
same,% Lysis,[4]; [11],5.0 ± 2.4%
same,% Lysis,[4]; [12],4.2 ± 1.2%
same,% Lysis,"[4]; 0.0140 mL/L 1 time per day, day 5",10.0 ± 2.4%
same,% Lysis,"[4]; 0.0140 mL/L 2 times per day (discontinued day 5), day 6",9.7 ± 5.9%
same,% Lysis,"[4]; 0.0140 mL/L 2 times per day (discontinued day 5), day 9",5.0 ± 0.0%
same,% Lysis,"[4]; 0.0140 mL/L 2 times per day (discontinued day 5), day 11",0.0 ± 0.0%
same,% Lysis,"[4]; 0.0140 mL/L 2 times per day, day 0",4.2 ± 1.2%
same,% Lysis,"[4]; 0.0140 mL/L 2 times per day, day 3",5.0 ± 4.7%
same,% Lysis,"[4]; 0.0140 mL/L 2 times per day, day 4",3.3 ± 2.4%
same,% Lysis,"[4]; 0.0140 mL/L 2 times per day, day 5",10.0 ± 2.4%
same,% Lysis,"[4]; 0.0140 mL/L 3 times per day (discontinued day 5), day 6",55.0 ± 30.6%
same,% Lysis,"[4]; 0.0140 mL/L 3 times per day (discontinued day 5), day 9",60.0 ± 28.3%
same,% Lysis,"[4]; 0.0140 mL/L 3 times per day (discontinued day 5), day 11",56.7 ± 33.0%
same,% Lysis,"[4]; 0.0140 mL/L 3 times per day, day 0",4.2 ± 1.2%
same,% Lysis,"[4]; 0.0140 mL/L 3 times per day, day 3",2.5 ± 3.5%
same,% Lysis,"[4]; 0.0140 mL/L 3 times per day, day 4",9.2 ± 1.2%
same,% Lysis,"[4]; 0.0140 mL/L 3 times per day, day 5",42.5 ± 15.3%
same,percent lysis,[4]; 0.014 mL/L dosed three times per day,40%
same,% Lysis,"[4]; 0.0175 mL/L 1 time per day (discontinued day 5), day 6",6.7 ± 2.4%
same,% Lysis,"[4]; 0.0175 mL/L 1 time per day (discontinued day 5), day 9",6.7 ± 4.7%
same,% Lysis,"[4]; 0.0175 mL/L 1 time per day (discontinued day 5), day 11",4.2 ± 3.5%
same,% Lysis,"[4]; 0.0175 mL/L 1 time per day, day 0",4.2 ± 1.2%
same,% Lysis,"[4]; 0.0175 mL/L 1 time per day, day 3",2.5 ± 1.2%
same,% Lysis,"[4]; 0.0175 mL/L 1 time per day, day 4",4.2 ± 1.2%
same,% Lysis,"[4]; 0.0175 mL/L 1 time per day, day 5",9.2 ± 1.2%
same,percent lysis,[4]; all treated cultures except 0.014 mL/L three times per day,10%
